# Entries after “also recorded” stand apart in the source; their conditions may differ.
# What was measured:
# [1] = tested on: rat model of diabetic macular edema (DME); assay: Rat model of diabetic macular edema (STZ-induced diabetes), intravitreal treatment; assay type: in vivo, male brown Norway rats
# Protocol: To assess the effect of Compound I-22 in a rat model of diabetic macular edema (DME), Type 1 diabetes was induced in male brown Norway rats by intraperitoneal administration of streptozotocin (STZ; 55 mg/kg). Forty days after STZ administration, animals were assessed for the presence of diabetes by testing blood glucose levels.
# Compound I-22 was supplied as a preformulated sterile solution at 5 mg/mL. The vehicle was 25% hydroxypropyl-β-cyclodextrin solution (333 mOsm/kg) in a sodium phosphate buffer, pH 7.2. Animals with diabetes were assigned to groups of ten, to receive either vehicle (HPβCD) or compound I-22.
# The study consisted of three groups of male brown Norway rats. Diabetes and diabetic retinopathy were induced in Groups 2 and 3 by intraperitoneal injection of streptozotocin (STZ) on Day 0; Group 1 animals served as non-STZ (non-diabetic) untreated controls. Six and eight weeks after STZ injection, Vehicle (3.5 μL) and Compound I-22 (17.5 μg per eye; 3.5 μL) were administered intravitreally to both eyes of rats in Group 2 and Group 3, respectively. Clinical observations (daily), body weights (weekly), qualitative food consumption, and blood glucose levels (weekly) were assessed. To evaluate retinopathy, electroretinography (ERG) was conducted at Weeks 8, 9 and 10; and optical coherence tomography (OCT) and fundus fluorescein angiography (FFA) were performed pre-dose at Week 6, and at Weeks 8, 9, and 10. Animals were euthanized at 10 weeks post-STZ administration and eyes were collected for histopathological evaluation.
# Type 1 diabetes was induced by intraperitoneal administration of 55 mg/kg STZ after an overnight fast. The STZ dosing solution (27.5 mg/mL) was prepared immediately prior to injection by dissolving STZ (Sigma-Aldrich Corp, St. Louis, Mo., Catalog S0130) in a citrate solution (see below) followed by filtration of the STZ solution using a 0.2 μm syringe filter (Pall Life Sciences, Ann Arbor, Mich., Catalog PN4192). The STZ dosing solution was used for injection within approximately 30 minutes after reconstitution.
# Electroretinography (ERG) was performed on Days 55, 62 and 69. After an overnight dark adaption, both eyes were dilated with 1% tropicamide. Animals were anesthetized by isoflurane prior to the procedure. ERG responses to light stimuli (8.0 cd·s/m^2) were recorded by RETevet (LKC Technologies, Inc.). Implicit times and amplitudes of a-waves and b-waves were reported. There was a deviation from the protocol in which ERG was not performed prior to Test Article administration (˜Day 40). The deviation had no impact on the conclusion of the study. Baseline ERG measurements are not required to determine efficacy of the Test Article. A […] ERG assessment was added to the study.
# Optical coherence tomography (OCT) and fundus fluorescein angiography (FFA) were performed on Day 41 (pre-dose) and Days 56, 63 and 70 (post-dose initiation). Both eyes were dilated with 1% tropicamide. Animals were anesthetized (by ketamine/xylazine intramuscular injection) prior to the procedures.
# Retinas of both eyes in each animal were scanned by OCT (Envisu R-Class, Leica/Bioptogen). Thickness of retinal mid-layers, approximately including the outer plexiform layer (OPL), the outer nuclear layer (ONL) and the photoreceptor inner segment (IS), were measured using Bioptigen InVivoVue Reader software. For each eye, four (4) digital calipers were placed randomly on a cross-section image between OPL and IS, away from optic nerve; and measurements were exported to Microsoft Excel files. An average thickness of each retina was calculated from the four (4) measurements, using Microsoft Excel.
# For FFA, ˜1.5 mL/kg fluorescein (AK-FLUOR® fluorescein injection, USP, 10%, NDC 17478253-10) was injected intraperitoneally to visualize the retinal vasculature. […]
# [2] = tested on: dextran sulfate sodium (DSS)-induced acute ulcerative colitis (UC); assay: 7-Day DSS-induced acute ulcerative colitis model; assay type: in vivo, female Swiss Webster mice; settings: vs PO vehicle
# [3] = 17.5 μg per eye IVT at 6 and 8 weeks after STZ, Week 10, vs vehicle
# [4] = 17.5 μg per eye IVT, vs vehicle
# [5] = 200 mg/kg PO BID, Days 0 through 6
# [6] = 200 mg/kg PO BID, Days −3 through 6
smiles,measurement,setting,value
CC(C)(O)c1cc2oc(-c3ccccc3)nc2cc1N [Compound I-22],tolerability in the retina,[1]; 17.5 μg per eye IVT,well tolerated
same,neutrophil infiltration (histopathology score),[1]; [3],significant reduction; also recorded: blocked
same,retinal thickness (histopathology score),[1]; [3],reduced retinal thickness; also recorded: statically significant decrease; also recorded: significantly reduced
same,severities of the retinal lesions (histopathology),"[1]; 17.5 μg per eye IVT at 6 and 8 weeks after STZ, ten weeks after STZ, vs vehicle",significantly diminished; also recorded: statistically significant reductions
same,retinal inflammation,"[1]; 17.5 μg per eye IVT, model of DME",decreased
same,"ERG, OCT, or FFA",[1]; [4],did not show statistically significant effects
same,diabetes-induced retinal vascular changes,[1]; [4],inhibited; also recorded: blocked
same,"body weights, glucose levels, ERG, OCT or FFA",[1]; Group 3 vs Vehicle-treated Group 2,No statistically significant differences
same,Mean vascular scores,"[1]; Week 8, control group 3.0, p<0.05",2.47
same,OCT mean retinal thickness,"[1]; Week 9, vehicle-treated group 83.3 μm",82.3 μm
same,Retinal thickness (OCT),"[1]; Weeks 9 and 10, vs vehicle","reduced at Weeks 9 and 10, however it was not statistically significant"
same,decrease in retinal vascularity score,"[1]; microscopic sections of the retinas, vs vehicle, p<0.05",36%
same,ERG changes,[1]; relative to the non-diabetic control group,nor were there any ERG changes
same,decrease in vascular leakage,[1]; vs vehicle-treated group,did not reach statistical significance
same,Body weights,"[2]; 200 mg/kg PO BID (Groups 5, 6, 7, 8, 9, and 10)",did not differ significantly
same,"Colon lengths, increase in the direction of normal",[2]; [5],41%
same,PMN percentages in the proximal colon,[2]; [5],significantly increased
same,"distal colon edema, reduction",[2]; [5],78%
same,"distal colon hyperplasia, reduction",[2]; [5],86%
same,"distal colon mucosal thickness, reduction",[2]; [5],66%
same,"full colon edema, reduction",[2]; [5],62%
same,"proximal colon edema, reduction",[2]; [5],43%
same,"full colon edema, reduction",[2]; [6],48%
same,"proximal colon edema, reduction",[2]; [6],60%
same,"proximal colon mucosal thickness, reduction",[2]; [6],58%
same,DAI stool consistency scores,"[2]; Day 2, 200 mg/kg PO BID, Days 0 through 6",significantly reduced

# From patent publication US11583529B2, “Treatment of inflammatory disorders” (Aldeyra Therapeutics, Inc., priority 2017, dated 2023)
